Results published in PMC6060096, “Novel 3D Structure Based Model for Activity Prediction and Design of Antimicrobial Peptides” (Scientific Reports, 2018).
In brackets after ≈: the same amount, converted by molar mass. Residues, ends and D or L forms follow the SMILES beside them.

What was measured:
Type in all cases: cell-based
[1] = test system: Enterococcus faecalis (clinical strains); test: MIC, broth microdilution; details: LB broth, ~1.0 × 10^5 CFU/ml, 0.5 to 512.0 μg/ml, 37 °C, 24 h, OD600, performed three times
Experimental: (§1) The experimentally determined strains are as follows: Listeria monocytogenes (ATCC 19115), Staphylococcus aureus (CMCC(B)26003), Bacillus subtilis (CMCC(B)63501), Escherichia coli (CMCC(B) 44102), Pseudomonas aeruginosa (CMCC(B)10104), Enterococcus faecalis (clinical strains) from China Pharmaceutical University Microbiology Laboratory. Minimal inhibitory concentration(MIC) of peptides were determined using broth microdilution method. Two-fold serial dilutions of eight peptides were prepared from 1024.0 to 1.0 μg/ml in 96-well microtiter plate (100.0 μl of each well). Then peptide dilutions were mixed with LB broth and bacterial culture (100.0 μl) containing 2.0 × 10^5 CFU/ml. Final peptide concentrations ranged from 0.5 to 512.0 μg/ml. The final bacterial concentration was approximately 1.0 × 10^5 CFU/ml. Positive controls were incubated with Cefuroxime instead of peptide, at concentrations from 0.5 to 512.0 μg/ml. Negative and blank controls were incubated, respectively, with sterile deionized water or only LB broth. Microtiter plates were incubated at 37 °C for 24 h under normal atmospheric conditions. OD600 was measured using a microplate spectrophotometer (Multiskan GO, Thermo Scientific, USA). MIC was recorded as the endpoint where no difference of OD600 could be detected with respect to the blank LB broth. MIC assays were performed three times for all strains.

[2] = test system: Bacillus subtilis (CMCC(B)63501); test: microbe, parasite or virus in culture
Experimental: as §1

[3] = test system: Staphylococcus aureus (CMCC(B)26003); test: microbe, parasite or virus in culture
Experimental: as §1

[4] = test system: Pseudomonas aeruginosa (CMCC(B)10104); test: microbe, parasite or virus in culture
Experimental: as §1

[5] = test system: Listeria monocytogenes (ATCC 19115); test: microbe, parasite or virus in culture
Experimental: as §1

[6] = test system: Escherichia coli (CMCC(B) 44102); test: microbe, parasite or virus in culture
Experimental: as §1

Compound	MIC Staphylococcus aureus ([3]; CMCC(B)26003, 24 h) [µg/mL]	MIC Listeria monocytogenes ([5]; ATCC 19115, 24 h) [µg/mL]	MIC Bacillus subtilis ([2]; CMCC(B)63501, 24 h) [µg/mL]	also measured
CO/N=C(\C(=O)N[C@@H]1C(=O)N2C(C(=O)O)=C(COC(N)=O)CS[C@H]12)c1ccco1 [Cefuroxime, reference compound]				MIC ([1]; Enterococcus faecalis): 16 µg/mL (≈ 37.7 µM); MIC ([2]; Bacillus subtilis, CMCC(B)63501, broth microdilution, LB broth, ~1.0 × 10^5 CFU/ml, 0.5 to 512.0 μg/ml, 37 °C, 24 h, OD600, performed three times): ≤ 0.5 µg/mL; MIC ([3]; Staphylococcus aureus, CMCC(B)26003, broth microdilution, LB broth, ~1.0 × 10^5 CFU/ml, 0.5 to 512.0 μg/ml, 37 °C, 24 h, OD600, performed three times): 4 µg/mL (≈ 9.43 µM); MIC ([4]; Pseudomonas aeruginosa, CMCC(B)10104, broth microdilution, LB broth, ~1.0 × 10^5 CFU/ml, 0.5 to 512.0 μg/ml, 37 °C, 24 h, OD600, performed three times): > 512 µg/mL; MIC ([5]; Listeria monocytogenes, ATCC19115, ATCC 19115, broth microdilution, LB broth, ~1.0 × 10^5 CFU/ml, 0.5 to 512.0 μg/ml, 37 °C, 24 h, OD600, performed three times): 4 µg/mL (≈ 9.43 µM); MIC ([6]; Escherichia coli, CMCC(B) 44102, broth microdilution, LB broth, ~1.0 × 10^5 CFU/ml, 0.5 to 512.0 μg/ml, 37 °C, 24 h, OD600, performed three times): 8 µg/mL (≈ 18.9 µM)
CC[C@H](C)[C@H](NC(=O)[C@H](CCCNC(=N)N)NC(=O)[C@H](CCCNC(=N)N)NC(=O)[C@H](CC(C)C)NC(=O)[C@@H](N)Cc1ccccc1)C(=O)N[C@@H](CCCNC(=N)N)C(=O)N[C@H](C(N)=O)C(C)C [FLRRIRV-NH2] (H-FLRRIRV-NH2)	128 (≈ 134 µM)	128 (≈ 134 µM)		
CC[C@H](C)[C@H](NC(=O)[C@H](CCCNC(=N)N)NC(=O)[C@H](CCCNC(=N)N)NC(=O)[C@H](CC(C)C)NC(=O)[C@@H](N)Cc1ccccc1)C(=O)N[C@@H](CCCNC(=N)N)C(=O)N[C@H](C(=O)N[C@H](C(=O)N1CCC[C@H]1C(=O)N[C@@H](Cc1c[nH]c2ccccc12)C(=O)N[C@H](C(=O)N[C@@H](CC(N)=O)C(=O)N1CCC[C@H]1C(=O)N1CCC[C@H]1C(=O)N[C@@H](Cc1ccccc1)C(=O)N[C@@H](CC(C)C)C(=O)N[C@@H](CCC(N)=O)C(=O)N[C@@H](CCC(N)=O)C(=O)N[C@H](C(N)=O)[C@@H](C)O)C(C)C)[C@@H](C)O)C(C)C [FLRRIRVTPWVNPPFLQQT-NH2] (H-FLRRIRVTPWVNPPFLQQT-NH2)	256 (≈ 108 µM)	128 (≈ 54.1 µM)		
CC[C@H](C)[C@H](NC(=O)[C@H](CCCNC(=N)N)NC(=O)[C@H](CCCNC(=N)N)NC(=O)[C@H](Cc1c[nH]c2ccccc12)NC(=O)[C@@H](N)Cc1ccccc1)C(=O)N[C@@H](CCCNC(=N)N)C(=O)N[C@H](C(N)=O)C(C)C [FWRRIRV-NH2] (H-FWRRIRV-NH2)	64 (≈ 62.1 µM)	32 (≈ 31 µM)	128 (≈ 124 µM)	
CC[C@H](C)[C@H](NC(=O)[C@H](CCCNC(=N)N)NC(=O)[C@H](CCCNC(=N)N)NC(=O)[C@H](Cc1c[nH]c2ccccc12)NC(=O)[C@@H](N)Cc1ccccc1)C(=O)N[C@@H](CCCNC(=N)N)C(=O)N[C@H](C(=O)N[C@H](C(=O)N1CCC[C@H]1C(=O)N[C@H](C(=O)N[C@H](C(=O)N[C@@H](CC(N)=O)C(=O)N1CCC[C@H]1C(=O)N1CCC[C@H]1C(=O)N[C@@H](Cc1ccccc1)C(=O)N[C@@H](CC(C)C)C(=O)N[C@@H](CCC(N)=O)C(=O)N[C@@H](CCC(N)=O)C(=O)N[C@H](C(N)=O)[C@@H](C)O)C(C)C)C(C)C)[C@@H](C)O)C(C)C [FWRRIRVTPVVNPPFLQQT-NH2] (H-FWRRIRVTPVVNPPFLQQT-NH2)	256 (≈ 109 µM)	256 (≈ 109 µM)		
CC[C@H](C)[C@H](NC(=O)[C@H](CCCNC(=N)N)NC(=O)[C@H](CCCNC(=N)N)NC(=O)[C@H](Cc1c[nH]c2ccccc12)NC(=O)[C@@H](N)Cc1ccccc1)C(=O)N[C@@H](CCCNC(=N)N)C(=O)N[C@H](C(=O)N[C@H](C(=O)N1CCC[C@H]1C(=O)N[C@H](C(=O)N[C@H](C(=O)N[C@@H](CC(N)=O)C(=O)N1CCC[C@H]1C(=O)N[C@@H](Cc1c[nH]c2ccccc12)C(=O)N[C@@H](Cc1ccccc1)C(=O)N[C@@H](CC(C)C)C(=O)N[C@@H](CCC(N)=O)C(=O)N[C@@H](CCC(N)=O)C(=O)N[C@H](C(N)=O)[C@@H](C)O)C(C)C)C(C)C)[C@@H](C)O)C(C)C [FWRRIRVTPVVNPWFLQQT-NH2] (H-FWRRIRVTPVVNPWFLQQT-NH2)	32 (≈ 13.1 µM)	32 (≈ 13.1 µM)	64 (≈ 26.2 µM)	MIC Pseudomonas aeruginosa ([4]; CMCC(B)10104, 24 h): 256 µg/mL (≈ 105 µM); MIC Escherichia coli ([6]; CMCC(B) 44102, 24 h): 256 µg/mL (≈ 105 µM)
CC[C@H](C)[C@H](NC(=O)[C@H](CCCNC(=N)N)NC(=O)[C@H](CCCNC(=N)N)NC(=O)[C@H](Cc1c[nH]c2ccccc12)NC(=O)[C@@H](N)Cc1ccccc1)C(=O)N[C@@H](CCCNC(=N)N)C(=O)N[C@H](C(=O)N[C@H](C(=O)N1CCC[C@H]1C(=O)N[C@@H](Cc1c[nH]c2ccccc12)C(=O)N[C@H](C(=O)N[C@@H](CC(N)=O)C(=O)N1CCC[C@H]1C(=O)N1CCC[C@H]1C(=O)N[C@@H](Cc1ccccc1)C(=O)N[C@@H](CC(C)C)C(=O)N[C@@H](CCC(N)=O)C(=O)N[C@@H](CCC(N)=O)C(=O)N[C@H](C(N)=O)[C@@H](C)O)C(C)C)[C@@H](C)O)C(C)C [FWRRIRVTPWVNPPFLQQT-NH2] (H-FWRRIRVTPWVNPPFLQQT-NH2)	64 (≈ 26.2 µM)	64 (≈ 26.2 µM)	256 (≈ 105 µM)	
CC(C)C[C@H](NC(=O)[C@H](Cc1ccccc1)NC(=O)[C@@H]1CCCN1C(=O)[C@@H]1CCCN1C(=O)[C@H](CC(N)=O)NC(=O)[C@@H](NC(=O)[C@@H](NC(=O)[C@@H]1CCCN1C(=O)[C@@H](N)[C@@H](C)O)C(C)C)C(C)C)C(=O)N[C@@H](CCC(N)=O)C(=O)N[C@@H](CCC(N)=O)C(=O)N[C@H](C(N)=O)[C@@H](C)O [TPVVNPPFLQQT-NH2, reference compound] (H-TPVVNPPFLQQT-NH2)		512 (≈ 382 µM)		
FLRRIRVTPVVNPPFLQQT-NH2				MIC Enterococcus faecalis [1]: — (“—” indicates that the peptide is inactive at 512 μg/ml.); MIC Bacillus subtilis ([2]; CMCC(B)63501, broth microdilution, LB broth, ~1.0 × 10^5 CFU/ml, 0.5 to 512.0 μg/ml, 37 °C, 24 h, OD600, performed three times): — (“—” indicates that the peptide is inactive at 512 μg/ml.); MIC Staphylococcus aureus ([3]; CMCC(B)26003, broth microdilution, LB broth, ~1.0 × 10^5 CFU/ml, 0.5 to 512.0 μg/ml, 37 °C, 24 h, OD600, performed three times): — (“—” indicates that the peptide is inactive at 512 μg/ml.); MIC Pseudomonas aeruginosa ([4]; CMCC(B)10104, broth microdilution, LB broth, ~1.0 × 10^5 CFU/ml, 0.5 to 512.0 μg/ml, 37 °C, 24 h, OD600, performed three times): — (“—” indicates that the peptide is inactive at 512 μg/ml.); MIC Listeria monocytogenes ([5]; ATCC 19115, broth microdilution, LB broth, ~1.0 × 10^5 CFU/ml, 0.5 to 512.0 μg/ml, 37 °C, 24 h, OD600, performed three times): — (“—” indicates that the peptide is inactive at 512 μg/ml.); MIC Escherichia coli ([6]; CMCC(B) 44102, broth microdilution, LB broth, ~1.0 × 10^5 CFU/ml, 0.5 to 512.0 μg/ml, 37 °C, 24 h, OD600, performed three times): — (“—” indicates that the peptide is inactive at 512 μg/ml.)
